{"source": "paper PMC7689791", "about": "(Journal of Clinical Pharmacology, 2020)", "test": "Observed incidence of treatment-emergent adverse events in clinical studies", "details": "studies 202, 303, 304; 5 to 15 mg"}
{"smiles": "Cc1ncc(OC[C@@]2(c3cccc(F)c3)C[C@H]2C(=O)Nc2ccc(F)cn2)c(C)n1", "note": "[Lemborexant]", "values": [{"measurement": "Flu/influenza frequency, active treatment", "value": 4.0, "unit": "%"}]}
